Reference: US20190030018A1 (Celgene Corporation, priority 2017, published 2019)

Experiments:
[1] = test system: human QGP1 pancreatic somatostatinoma xenografts; conditions: mouse, in vivo
Protocol: Treatment began on Day 1 in nine groups of mice (n=10) with established subcutaneous QGP1 tumors. […] Tumors were measured using calipers twice each week to the end of the study on Day 52. Three tumors at or near the group median tumor volume 2000 mm^3 endpoint were sampled from each group.
Treatment efficacy was based on tumor growth inhibition (TGI), defined as the difference between the final (Day 52) median tumor volumes (MTVs) of treated and control mice. The results were analyzed utilizing the Mann-Whitney U-test, and were deemed statistically significant at P≤0.05. Drug tolerability was assessed by body weight measurements and by frequent observation of treated animals.

[2] = test system: peripheral blood mononuclear cells (PBMCs) from myelofibrosis patients; assay: Colony forming assay using myelofibrosis patient samples; format: cell-based, human
Source text: The following samples were used:
MF13: De novo MF, characterized by JAK2 wt, FLT3 wt, NPM1 wt, CEBPA wt
MF14: De novo MF, characterized by JAK2 wt, CALR exon9 mut, ASXL1 wt, MPLwt

SMILES: O=C1CCC(N2Cc3cc(CNC(=O)C(F)(F)c4ccc(Cl)cc4)ccc3C2=O)C(=O)N1 (stereo not drawn) [Compound 1, 2-(4-chlorophenyl)-N-((2-(2,6-dioxopiperidin-3-yl)-1-oxoisoindolin-5-yl)methyl)-2,2-difluoroacetamide]
- weight loss [1]: 1.6-6.8%
- number of colony forming cells ([2]; 14 days in methocult media, samples MF13, MF14): reduced by Compound 1 in a dose dependent manner
- IC50 in colony forming assay ([2]; compared with samples from healthy volunteers): lower than IC50s observed in samples from healthy volunteers
